Laboratory results reported in ChEMBL document CHEMBL4311969, “Polygala tenuifolia-Acori tatarinowii herbal pair as an inspiration for substituted cinnamic α-asaronol esters: Design, synthesis, anticonvulsant activity, and inhibition of lactate dehydrogenase study” (Eur J Med Chem, 2019).
Several values for one entry are separate records, joined by “and”; a condition that tells them apart may be missing. Equal values may be shown once. Activity calls are given as the source filed them. The calls are words filed in the database; no cut-off is given here.

Columns and labels:
Mus musculus [1] = assay: Anticonvulsant activity in Kunming mouse assessed as reduction in Sc3-MP-induced clonic seizure rate at 300 mg/kg, ip administered 0.5 hrs before Sc3-MP stimulation relative to control; assay type: functional; design: scale not given: the % may be the effect or the level left
Mus musculus [2] = assay: Anticonvulsant activity in Kunming mouse assessed as reduction in Sc3-MP-induced tonic seizure rate at 300 mg/kg, ip administered 0.5 hrs before Sc3-MP stimulation relative to control; assay type: functional; design: scale not given: the % may be the effect or the level left
Mus musculus [3] = assay: Anticonvulsant activity in Kunming mouse assessed as MES-induced hind limb extension at 100 mg/kg, ip administered 0. 5 to 2 hrs before MES stimulation; assay type: functional, organism-based
Mus musculus [4] = assay: Anticonvulsant activity in Kunming mouse assessed as MES-induced hind limb extension at 100 mg/kg, ip administered 3 hrs before MES stimulation; assay type: functional, organism-based
[5] = Neurotoxicity against Kunming mouse assessed as time remained in rod at 100 mg/kg, ip administered 0.5 to 2 hrs by rotarod test; assay type: toxicity, organism-based; conditions: in vivo
Mus musculus [6] = assay: Anticonvulsant activity in Kunming mouse assessed as MES-induced hind limb extension at 50 mg/kg, ip administered 0.5 and 2 hrs before MES stimulation relative to control; assay type: functional
Mus musculus [7] = assay: Anticonvulsant activity in Kunming mouse assessed as reduction in ScPTZ-induced seizure at 300 mg/kg, ip administered 0.25 to 2 hrs before ScPTZ stimulation relative to control; assay type: functional; design: scale not given: the % may be the effect or the level left
Mus musculus [8] = assay: Anticonvulsant activity in Kunming mouse assessed as reduction in ScPTZ-induced seizure at 100 mg/kg, ip administered 0.25 to 2 hrs before ScPTZ stimulation relative to control; assay type: functional
Mus musculus [9] = assay: Anticonvulsant activity in Kunming mouse assessed as reduction in ScPTZ-induced seizure at 100 mg/kg, ip administered 0.25 and 1 hrs before ScPTZ stimulation relative to control; assay type: functional; design: scale not given: the % may be the effect or the level left
Mus musculus [10] = assay: Anticonvulsant activity in Kunming mouse assessed as reduction in ScPTZ-induced clonic seizure at 300 mg/kg, ip administered 0.5 hrs before ScPTZ stimulation relative to control; assay type: functional; design: scale not given: the % may be the effect or the level left
Mus musculus [11] = assay: Anticonvulsant activity in Kunming mouse assessed as reduction in ScPTZ-induced clonic seizure at 100 mg/kg, ip administered 0.5 hrs before ScPTZ stimulation relative to control; assay type: functional; design: scale not given: the % may be the effect or the level left
Mus musculus [12] = assay: Anticonvulsant activity in Kunming mouse assessed as reduction in ScPTZ-induced tonic seizure rate at 300 mg/kg, ip administered 0.5 hrs before ScPTZ stimulation relative to control; assay type: functional; design: scale not given: the % may be the effect or the level left
Mus musculus [13] = assay: Anticonvulsant activity in Kunming mouse assessed as reduction in ScPTZ-induced tonic seizure rate at 100 mg/kg, ip administered 0.5 hrs before ScPTZ stimulation relative to control; assay type: functional; design: scale not given: the % may be the effect or the level left
Mus musculus [14] = assay: Anticonvulsant activity in Kunming mouse assessed as reduction in ScPTZ-induced mortality rate at 300 mg/kg, ip administered 0.5 hrs before ScPTZ stimulation relative to control; assay type: functional; design: scale not given: the % may be the effect or the level left
Mus musculus [15] = assay: Anticonvulsant activity in Kunming mouse assessed as reduction in Sc3-MP-induced seizure at 300 mg/kg, ip administered 0.25 and 1 hrs before Sc3-MP stimulation relative to control; assay type: functional, organism-based
Mus musculus [16] = assay: Anticonvulsant activity in Kunming mouse assessed as reduction in Sc3-MP-induced seizure at 300 mg/kg, ip administered 0.5 hrs before Sc3-MP stimulation relative to control; assay type: functional; design: scale not given: the % may be the effect or the level left
Mus musculus [17] = assay: Anticonvulsant activity in Kunming mouse assessed as reduction in Sc3-MP-induced mortality rate at 300 mg/kg, ip administered 0.5 hrs before Sc3-MP stimulation relative to control; assay type: functional; design: scale not given: the % may be the effect or the level left
Mus musculus [18] = assay: Anticonvulsant activity in ip dosed Kunming mouse assessed as MES-induced hind limb extension administered 0.5 hrs before MES stimulation; assay type: functional
Mus musculus [19] = assay: Anticonvulsant activity in ip dosed Kunming mouse assessed as reduction in ScPTZ-induced seizure administered 0.5 hrs before ScPTZ stimulation; assay type: functional
Mus musculus [20] = assay: Anticonvulsant activity in Kunming mouse assessed as reduction in Sc3-MP-induced seizure ip dosed measured at 0.5 hrs before Sc3-MP stimulation; assay type: functional
Mus musculus [21] = assay: […] activity in ip dosed Kunming mouse assessed as reduction in formalin-induced paw licking administered 0.5 hrs before formalin stimulation; assay type: functional
[22] = Neurotoxicity against ip dosed Kunming mouse assessed as time remained in rod measured at 0.5 hrs by rotarod test; assay type: toxicity, organism-based; conditions: in vivo
[23] = Protective index, ratio of TD50 for neurotoxicity against ip dosed Kunming mouse assessed as time remained in rod measured at 0.5 hrs by rotarod test to ED50 for anticonvulsant activity in ip dosed Kunming mouse assessed as MES-induced hind limb extension administered 0.5 hrs; assay type: toxicity, organism-based; conditions: in vivo, read-out: PI
[24] = (§1) Protective index, ratio of TD50 for neurotoxicity against ip dosed Kunming mouse assessed as time remained in rod measured at 0.5 hrs by rotarod test to ED50 for anticonvulsant activity in ip dosed Kunming mouse assessed as reduction in ScPTZ-induced seizure administered 0.5 hrs before ScPTZ stimulation; assay type: toxicity, organism-based; conditions: in vivo, read-out: PI
[25] = as §1, with “Sc3-MP-induced” for “ScPTZ-induced”, “Sc3-MP” for “ScPTZ”; assay type: toxicity, organism-based; conditions: in vivo, read-out: PI
[26] = as §1, with “formalin-induced paw licking” for “ScPTZ-induced seizure”, “formalin” for “ScPTZ”; assay type: toxicity, organism-based; conditions: in vivo, read-out: PI
Homo sapiens [27] = species on record: Homo sapiens; assay: Inhibition of human LDH1 at 0.5 mM using sodium pyruvate as substrate by UV-VIS spectrophotometry method relative to control
Homo sapiens [28] = species on record: Homo sapiens; assay: Inhibition of human LDH5 at 0.5 mM using sodium pyruvate as substrate by UV-VIS spectrophotometry method relative to control
Mus musculus [29] = assay: Anticonvulsant activity in Kunming mouse assessed as MES-induced hind limb extension at 100 mg/kg, ip administered 0. 5 to 4 hrs before MES stimulation relative to control; assay type: functional
Mus musculus [30] = assay: Anticonvulsant activity in Kunming mouse assessed as MES-induced hind limb extension at 50 mg/kg, ip administered 0.5 to 4 hrs before MES stimulation relative to control; assay type: functional
Mus musculus [31] = assay: Anticonvulsant activity in Kunming mouse assessed as MES-induced hind limb extension at 100 mg/kg, ip administered 0. 5 hrs before MES stimulation relative to control; assay type: functional

With COc1cc(OC)c(OC)cc1/C=C/COC(=O)/C=C/c1cccc(Br)c1 the Activity (Mus musculus [1]) was 100%, the Activity (Mus musculus [2]) was 50% and the Activity (Mus musculus [3]) was “Active”. The Activity (Mus musculus [4]) was “Active”, the Activity [5] was “Non-Toxic” and the Activity (Mus musculus [6]) was “inactive”. The Activity (Mus musculus [7]) was 50%, the Activity (Mus musculus [8]) was “inactive” and the Activity (Mus musculus [9]) was 75%. It also gave an Activity (Mus musculus [10]) of 100%, an Activity (Mus musculus [11]) of 100% and an Activity (Mus musculus [12]) of 25%. For the same compound, the Activity (Mus musculus [13]) was 100%, the Activity (Mus musculus [14]) was 0% and the Activity (Mus musculus [15]) was “Active”. For the same compound, the Activity (Mus musculus [16]) was 50%, the Activity (Mus musculus [17]) was 0% and the ED50 (Mus musculus [18]) was 175 µmol/kg and 75.7 mg/kg. For the same compound, the ED50 (Mus musculus [19]) was > 200 mg/kg and > 462 µmol/kg, the ED50 (Mus musculus [20]) was 215 mg/kg and 497 µmol/kg and the ED50 (Mus musculus [21]) was 113 mg/kg and 260 µmol/kg. For the same compound, the TD50 at 0.5 h [22] was > 2310 µmol/kg and > 1000 mg/kg, the selectivity ratio at 0.5 h [23] was > 13.2 and the selectivity ratio at 0.5 h [24] was 5. The selectivity ratio at 0.5 h [25] was > 4.6, the selectivity ratio at 0.5 h [26] was > 8.9 and the inhibition (Homo sapiens [27]) was < 5%. For the same compound, the inhibition (Homo sapiens [28]) was < 9% and the Activity (Mus musculus [29]) was 25 - 100%.

With COc1cc(OC)c(OC)cc1/C=C/COC(=O)/C=C/c1ccc(OC)c(OC)c1OC the Activity (Mus musculus [1]) was 100%, the Activity (Mus musculus [2]) was 75% and the Activity (Mus musculus [3]) was “Active”. The Activity [5] was “Non-Toxic”, the Activity (Mus musculus [30]) was 50% and the Activity (Mus musculus [6]) was 50%. The Activity (Mus musculus [7]) was 50%, the Activity (Mus musculus [8]) was “inactive” and the Activity (Mus musculus [9]) was 75%. The Activity (Mus musculus [10]) was 100%, the Activity (Mus musculus [11]) was 100% and the Activity (Mus musculus [12]) was 25%. For the same compound, the Activity (Mus musculus [13]) was 100%, the ED50 (Mus musculus [18]) was 33.4 mg/kg and 75.1 µmol/kg and the ED50 (Mus musculus [19]) was 203 mg/kg and 456 µmol/kg. The ED50 (Mus musculus [20]) was > 300 mg/kg and > 675 µmol/kg, the ED50 (Mus musculus [21]) was 78.4 mg/kg and 176 µmol/kg and the TD50 at 0.5 h [22] was > 1000 mg/kg and > 2250 µmol/kg. For the same compound, the selectivity ratio at 0.5 h [23] was > 29.9, the selectivity ratio at 0.5 h [24] was > 4.9 and the selectivity ratio at 0.5 h [25] was 3.3. For the same compound, the selectivity ratio at 0.5 h [26] was > 12.8, the inhibition (Homo sapiens [27]) was 7% and the inhibition (Homo sapiens [28]) was 8%. For the same compound, the Activity (Mus musculus [31]) was 100% and the Activity (Mus musculus [29]) was 25 - 100%.

In the case of COc1cc(OC)c(OC)cc1/C=C/COC(=O)/C=C/c1ccc(Cl)cc1, the Activity (Mus musculus [1]) is reported as 100%, the Activity (Mus musculus [2]) is reported as 50% and the Activity (Mus musculus [3]) is reported as “Active”. The Activity [5] was “Non-Toxic”, the Activity (Mus musculus [30]) was 50% and the Activity (Mus musculus [7]) was 50%. The Activity (Mus musculus [8]) was “inactive”, the Activity (Mus musculus [9]) was 75% and the Activity (Mus musculus [10]) was 100%. For the same compound, the Activity (Mus musculus [11]) was 100%, the Activity (Mus musculus [12]) was 25% and the Activity (Mus musculus [13]) was 100%. For the same compound, the Activity (Mus musculus [14]) was 0%, the Activity (Mus musculus [15]) was “Active” and the Activity (Mus musculus [16]) was 50%. For the same compound, the ED50 (Mus musculus [18]) was 137 µmol/kg and 53.4 mg/kg, the ED50 (Mus musculus [19]) was 142 mg/kg and 364 µmol/kg and the ED50 (Mus musculus [20]) was > 200 mg/kg and > 514 µmol/kg. For the same compound, the ED50 (Mus musculus [21]) was 108 mg/kg and 278 µmol/kg, the TD50 at 0.5 h [22] was > 2570 µmol/kg and > 1000 mg/kg and the selectivity ratio at 0.5 h [23] was > 18.7. The selectivity ratio at 0.5 h [24] was > 7.1, the selectivity ratio at 0.5 h [25] was > 6.2 and the selectivity ratio at 0.5 h [26] was > 9.3. The inhibition (Homo sapiens [27]) was < 5%, the inhibition (Homo sapiens [28]) was < 9% and the Activity (Mus musculus [29]) was 25 - 100%.
